In ChEMBL document CHEMBL1770110, “Pyrimido[4,5-d]azepines as potent and selective 5-HT2C receptor agonists: design, synthesis, and evaluation of PF-3246799 as a treatment for urinary incontinence” (Bioorg Med Chem Lett, 2011):
The source made the active and inactive calls. No cut-off for these calls is given here.

How the values were obtained:
[1] = target: T1, 5-hydroxytryptamine receptor 2C (Homo sapiens) (UniProt P28335); experiment: Agonist activity at human 5HT2C receptor expressed in CHO-K1 cells assessed as increase of fluorescence based calcium mobilization by FLIPR assay relative to control; assay type: functional, cell-based
T1 sequence (whole entry): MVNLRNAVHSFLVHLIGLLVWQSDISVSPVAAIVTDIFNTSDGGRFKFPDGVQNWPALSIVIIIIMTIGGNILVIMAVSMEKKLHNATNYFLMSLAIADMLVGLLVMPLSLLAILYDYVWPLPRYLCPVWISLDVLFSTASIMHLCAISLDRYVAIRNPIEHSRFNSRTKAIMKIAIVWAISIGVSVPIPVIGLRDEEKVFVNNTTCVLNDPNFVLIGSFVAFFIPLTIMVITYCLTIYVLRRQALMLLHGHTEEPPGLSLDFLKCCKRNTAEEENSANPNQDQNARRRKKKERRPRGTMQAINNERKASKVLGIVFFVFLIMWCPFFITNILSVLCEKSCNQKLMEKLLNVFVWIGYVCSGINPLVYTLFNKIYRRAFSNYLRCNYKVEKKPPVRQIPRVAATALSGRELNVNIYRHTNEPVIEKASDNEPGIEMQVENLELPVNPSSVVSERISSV

[2] = target: T2, 5-hydroxytryptamine receptor 2C (Homo sapiens, UniProt P28335); experiment: Agonist activity at human 5HT2C receptor expressed in CHO-K1 cells assessed as increase of fluorescence based calcium mobilization by FLIPR assay; assay type: functional, cell-based
T2 sequence (P28335 whole entry): T1 sequence (whole entry)

[3] = target: T1, 5-hydroxytryptamine receptor 2C (Homo sapiens); experiment: Agonist activity at human 5HT2C receptor expressed in CHO-K1 cells assessed as increase of fluorescence based calcium mobilization at 10 uM by FLIPR assay relative to control; assay type: functional, cell-based
[4] = target: T3, 5-hydroxytryptamine receptor 2B (Homo sapiens, UniProt P41595); experiment: Agonist activity at human 5HT2B receptor expressed in CHO-K1 cells assessed as increase of fluorescence based calcium mobilization by FLIPR assay relative to control; assay type: functional, cell-based
[5] = target: T3, 5-hydroxytryptamine receptor 2B; experiment: Agonist activity at human 5HT2B receptor expressed in CHO-K1 cells assessed as increase of fluorescence based calcium mobilization by FLIPR assay; assay type: functional, cell-based
[6] = target: T1, 5-hydroxytryptamine receptor 2C (Homo sapiens); experiment: Agonist activity at human 5HT2C receptor expressed in HEK293 cells assessed as 5-HT-induced maximum response by inositol phosphate accumulation assay; assay type: functional, cell-based
[7] = target: T4, 5-hydroxytryptamine receptor 2C (Canis lupus familiaris) (UniProt Q60F97); experiment: Agonist activity at dog 5HT2C receptor ralative to control; assay type: functional
T4 sequence (whole entry): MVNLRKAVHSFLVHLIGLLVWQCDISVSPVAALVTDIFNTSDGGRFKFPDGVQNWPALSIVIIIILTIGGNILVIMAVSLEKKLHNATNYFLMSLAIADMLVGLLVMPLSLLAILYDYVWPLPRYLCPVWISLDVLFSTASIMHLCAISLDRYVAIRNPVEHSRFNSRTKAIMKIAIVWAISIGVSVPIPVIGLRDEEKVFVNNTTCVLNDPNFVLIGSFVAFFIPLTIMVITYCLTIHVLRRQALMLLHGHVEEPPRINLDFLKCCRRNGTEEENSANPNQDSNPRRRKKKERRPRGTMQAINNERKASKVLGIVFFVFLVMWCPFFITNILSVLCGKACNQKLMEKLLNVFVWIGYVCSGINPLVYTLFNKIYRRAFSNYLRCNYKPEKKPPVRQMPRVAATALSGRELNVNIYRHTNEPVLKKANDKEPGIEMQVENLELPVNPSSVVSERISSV

[8] = target: T2, 5-hydroxytryptamine receptor 2C; experiment: Agonist activity at human 5HT2C receptor expressed in Swiss mouse 3T3 cells with low expression increase of fluorescence based calcium mobilization by FLIPR assay; assay type: functional, cell-based
[9] = target: T1, 5-hydroxytryptamine receptor 2C (Homo sapiens); experiment: Agonist activity at human recombinant 5HT2C receptor expressed in Swiss mouse 3T3 cells with low expression increase of fluorescence based calcium mobilization by FLIPR assay relative to control; assay type: functional, cell-based; conditions: NIH3T3

T3 sequence (P41595 whole entry): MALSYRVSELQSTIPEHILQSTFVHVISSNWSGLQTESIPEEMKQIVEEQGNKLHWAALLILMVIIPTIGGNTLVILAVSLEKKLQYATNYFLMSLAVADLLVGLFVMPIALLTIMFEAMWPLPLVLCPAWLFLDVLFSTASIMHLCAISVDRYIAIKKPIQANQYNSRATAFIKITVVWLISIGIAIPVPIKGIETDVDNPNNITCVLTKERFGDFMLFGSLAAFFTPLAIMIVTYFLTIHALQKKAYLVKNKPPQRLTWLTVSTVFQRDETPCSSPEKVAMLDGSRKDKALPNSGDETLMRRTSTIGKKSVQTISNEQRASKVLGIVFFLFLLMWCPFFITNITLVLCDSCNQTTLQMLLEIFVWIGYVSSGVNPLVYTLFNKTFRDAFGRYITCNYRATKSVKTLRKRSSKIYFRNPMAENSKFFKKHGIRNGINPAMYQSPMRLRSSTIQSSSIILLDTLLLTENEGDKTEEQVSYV

c1ccc(-c2ncc3c(n2)CNCC3)cc1
Emax [1]: 92% | EC50 [2]: 380 nM

c1ccc(CCc2ncc3c(n2)CNCC3)cc1
Activity [1]: inactive

c1ccc(Cc2ncc3c(n2)CNCC3)cc1
Emax [3]: 27%

Clc1cccc(Cc2ncc3c(n2)CCNCC3)c1
Emax [4]: 50% | Emax [1]: 56% | EC50 [5]: 30 nM

Fc1ccc(Cc2ncc3c(n2)CCNCC3)cc1
Emax [4]: 90% | Emax [1]: 60% | EC50 [5]: 610 nM

C[C@H]1CNCCc2ccc(Cl)cc21
Emax [6]: 100% | Emax [1]: 84% | Activity [7]: 82%

c1ccc(CCc2ncc3c(n2)CCNC3)cc1
Emax [3]: 50%

Fc1cccc(Cc2ncc3c(n2)CCNCC3)c1
Emax [4]: 66% | Emax [1]: 67% | EC50 [5]: 183 nM

FC(F)(F)c1cccc(Cc2ncc3c(n2)CCNCC3)c1
Emax [4]: 63% | Emax [1]: 44% | EC50 [5]: 160 nM

c1ccc(CCCc2ncc3c(n2)CNCC3)cc1
Activity [1]: inactive

c1ccc(CCc2ncc3c(n2)CCNCC3)cc1
Emax [1]: 99% | EC50 [8]: 4800 nM | Emax [9]: 40% | EC50 [2]: 110 nM

Cc1ccccc1Cc1ncc2c(n1)CCNCC2
Emax [4]: 56% | Emax [1]: 70% | EC50 [5]: 1200 nM
